Experimental data from patent US9993479B2, “Trk-inhibiting compound” (ONO PHARMACEUTICAL CO., LTD., priority 2013, dated 2018).

System: sodium monoiodoacetate-induced model rats
Assay: Analgesic effect on sodium monoiodoacetate-induced model rats
Format: in vivo, rat
Conditions: MIA-induced model rats
[1] = test substance 0.1, 0.3 or 1 mg/kg orally twice a day day 14-23 and 3 h before measurement on day 24, Table 7 (positive control tramadol)
[2] = test substance 0.1, 0.3 or 1 mg/kg orally twice a day day 14-23 and 3 h before measurement on day 24, Table 8 (positive control morphine)

SMILES | Percent improvement (%) [1] | Percent improvement (%) [2] | other results
Nc1ncc(Cl)cc1-c1ccc(Oc2ncc(NC(=O)Nc3cc(C(F)(F)F)ccc3-n3cccn3)cn2)cc1 [Example 7, 1-(2-(1H-pyrazol-1-yl)-5-(trifluoromethyl)phenyl)-3-(2-(4-(2-amino-5-chloropyridin-3-yl)phenoxy)pyrimidin-5-yl)urea] | 61% | – | –
Cc1cn(-c2ccc(C(F)(F)F)cc2NC(=O)Nc2cnc(Oc3ccc(-c4cc(Cl)cnc4N)cc3)nc2)nn1 [Example 8-1, 1-(2-(4-(2-amino-5-chloropyridin-3-yl)phenoxy)pyrimidin-5-yl)-3-(2-(4-methyl-1H-1,2,3-triazol-1-yl)-5-(trifluoromethyl)phenyl)urea] | 60% | – | –
Nc1ncc(F)cc1-c1ccc(Oc2ncc(NC(=O)Nc3cc(C(F)(F)F)ccc3-n3ccnn3)cn2)cc1 [Example 14-5, 1-(2-(1H-1,2,3-triazol-1-yl)-5-(trifluoromethyl)phenyl)-3-(2-(4-(2-amino-5-fluoropyridin-3-yl)phenoxy)pyrimidin-5-yl)urea] | 47% | – | –
Nc1ncc(F)cc1-c1ccc(Oc2ncc(NC(=O)Nc3cc(C(F)(F)F)ccc3-c3cccnc3)cn2)cc1 [Example 14-6, 1-(2-(4-(2-amino-5-fluoropyridin-3-yl)phenoxy)pyrimidin-5-yl)-3-(2-(pyridin-3-yl)-5-(trifluoromethyl)phenyl)urea] | – | 53% | –
Nc1ncc(Cl)cc1-c1ccc(Oc2ncc(NC(=O)Nc3ccc(C(F)(F)F)cc3Cl)cn2)cc1 [Example 15-6, 1-(2-(4-(2-amino-5-chloropyridin-3-yl)phenoxy)pyrimidin-5-yl)-3-(2-chloro-4-(trifluoromethyl)phenyl)urea] | 51% | – | –
Nc1ncc(C(F)(F)F)cc1-c1ccc(Oc2ncc(NC(=O)Nc3cc(C(F)(F)F)ccc3-n3ccc(C(F)(F)F)n3)cn2)cc1 [Example 15-52, 1-(2-{4-[2-amino-5-(trifluoromethyl)-3-pyridinyl]phenoxy}-5-pyrimidinyl)-3-{5-(trifluoromethyl)-2-[3-(trifluoromethyl)-1H-pyrazol-1-yl]phenyl}urea] | – | 60% | –
Nc1ncc(Cl)cc1-c1ccc(Oc2ncc(NC(=O)Nc3cc(C(F)(F)F)ccc3-c3ccccc3)cn2)cc1 [Example 15-55, 1-{2-[4-(2-amino-5-chloro-3-pyridinyl)phenoxy]-5-pyrimidinyl}-3-[4-(trifluoromethyl)-2-biphenylyl]urea] | – | 62% | –
Nc1ncc(Cl)cc1-c1ccc(Oc2ncc(NC(=O)Nc3cc(C(F)(F)F)ccc3-n3cc(Cl)cn3)cn2)cc1 [Example 15-63, 1-{2-[4-(2-amino-5-chloro-3-pyridinyl)phenoxy]-5-pyrimidinyl}-3-[2-(4-chloro-1H-pyrazol-1-yl)-5-(trifluoromethyl)phenyl]urea] | – | 53% | –
Nc1ncc(Cl)cc1-c1ccc(Oc2ncc(NC(=O)Nc3ccc(C(F)(F)F)cc3C(F)(F)F)cn2)cc1 [Example 15-77, 1-{2-[4-(2-amino-5-chloro-3-pyridinyl)phenoxy]-5-pyrimidinyl}-3-[2,4-bis(trifluoromethyl)phenyl]urea] | – | 55% | –
Nc1ncc(C(F)(F)F)cc1-c1ccc(Oc2ncc(NC(=O)Nc3cc(C(F)(F)F)ccc3-n3cc(Cl)cn3)cn2)cc1 [Example 15-87, 1-(2-{4-[2-amino-5-(trifluoromethyl)-3-pyridinyl]phenoxy}-5-pyrimidinyl)-3-[2-(4-chloro-1H-pyrazol-1-yl)-5-(trifluoromethyl)phenyl]urea] | – | 57% | –
CS(=O)(=O)c1ccc(C(F)(F)F)cc1NC(=O)Nc1cnc(Oc2ccc(-c3cc(C(F)(F)F)cnc3N)cc2)nc1 [Example 15-98, 1-(2-{4-[2-amino-5-(trifluoromethyl)-3-pyridinyl]phenoxy}-5-pyrimidinyl)-3-[2-(methylsulfonyl)-5-(trifluoromethyl)phenyl]urea] | – | 57% | –
CS(=O)(=O)c1ccc(C(F)(F)F)cc1NC(=O)Nc1cnc(Oc2ccc(-c3cc(Cl)cnc3N)cc2)nc1 [Example 15-104, 1-{2-[4-(2-amino-5-chloro-3-pyridinyl)phenoxy]-5-pyrimidinyl}-3-[2-(methylsulfonyl)-5-(trifluoromethyl)phenyl]urea] | – | 54% | –
COc1ccn2ncc(-c3ccc(Oc4ncc(NC(=O)Nc5cc(C(F)(F)F)ccc5-c5cccnc5)cn4)cc3)c2n1 [Example 21-9, 1-(2-(4-(5-methoxypyrazolo[1,5-a]pyrimidin-3-yl)phenoxy)pyrimidin-5-yl)-3-(2-(pyridin-3-yl)-5-(trifluoromethyl)phenyl)urea] | 64% | – | –
O=C(Nc1cnc(Oc2ccc(-c3cnn4cccnc34)cc2)nc1)Nc1cc(C(F)(F)F)ccc1-c1cccnc1 [Example 21-13, 1-(2-(4-(pyrazolo[1,5-a]pyrimidin-3-yl)phenoxy)pyrimidin-5-yl)-3-(2-(pyridin-3-yl)-5-(trifluoromethyl)phenyl)urea] | 66% | – | –
CN(C)c1ccn2ncc(-c3ccc(Oc4ncc(NC(=O)Nc5cc(C(F)(F)F)ccc5-c5cccnc5)cn4)cc3)c2n1 [Example 21-37, 1-(2-{4-[5-(dimethylamino)pyrazolo[1,5-a]pyrimidin-3-yl]phenoxy}-5-pyrimidinyl)-3-[2-(3-pyridinyl)-5-(trifluoromethyl)phenyl]urea] | – | 67% | –
CN(C)c1ccn2ncc(-c3ccc(Oc4ncc(NC(=O)Nc5cc(C(F)(F)F)ccc5-c5ccnn5C)cn4)cc3)c2n1 [Example 21-51, 1-(2-{4-[5-(dimethylamino)pyrazolo[1,5-a]pyrimidin-3-yl]phenoxy}-5-pyrimidinyl)-3-[2-(1-methyl-1H-pyrazol-5-yl)-5-(trifluoromethyl)phenyl]urea] | – | 68% | –
CN(C)c1ccn2ncc(-c3ccc(Oc4ncc(NC(=O)Nc5cc(C(F)(F)F)ccc5-c5ccccc5)cn4)cc3)c2n1 [Example 21-70, 1-(2-{4-[5-(dimethylamino)pyrazolo[1,5-a]pyrimidin-3-yl]phenoxy}-5-pyrimidinyl)-3-[4-(trifluoromethyl)-2-biphenylyl]urea] | – | 61% | –
Cc1cccc(-c2ccc(C(F)(F)F)cc2NC(=O)Nc2cnc(Oc3ccc(-c4cnn5ccc(N(C)C)nc45)cc3)nc2)c1 [Example 21-73, 1-(2-{4-[5-(dimethylamino)pyrazolo[1,5-a]pyrimidin-3-yl]phenoxy}-5-pyrimidinyl)-3-[3′-methyl-4-(trifluoromethyl)-2-biphenylyl]urea] | – | 62% | –
COc1cccc(C2(O)CCCCC2CN(C)C)c1 (stereo not shown) [Tramadol, tramadol, reference compound] | – | – | Percent improvement (%) (tramadol 10 mg/kg subcutaneously 1 hour before measurement on day 24, Table 7): 43%
